Source: publication PMC11945486, “TAS1R2/TAS1R3 Single-Nucleotide Polymorphisms Affect Sweet Taste Receptor Activation by Sweeteners: The SWEET Project” (Nutrients, 2025)
No end group written: not given here.

Target: T1, human TAS1R2-C9S/TAS1R3-WT (Homo sapiens, UniProt Q7RTX0+Q8TE23)
T1 construct: expressed in transfected cells; host or cells: HEK293T-Gα16gust44
T1 sequence (Q8TE23 20-839): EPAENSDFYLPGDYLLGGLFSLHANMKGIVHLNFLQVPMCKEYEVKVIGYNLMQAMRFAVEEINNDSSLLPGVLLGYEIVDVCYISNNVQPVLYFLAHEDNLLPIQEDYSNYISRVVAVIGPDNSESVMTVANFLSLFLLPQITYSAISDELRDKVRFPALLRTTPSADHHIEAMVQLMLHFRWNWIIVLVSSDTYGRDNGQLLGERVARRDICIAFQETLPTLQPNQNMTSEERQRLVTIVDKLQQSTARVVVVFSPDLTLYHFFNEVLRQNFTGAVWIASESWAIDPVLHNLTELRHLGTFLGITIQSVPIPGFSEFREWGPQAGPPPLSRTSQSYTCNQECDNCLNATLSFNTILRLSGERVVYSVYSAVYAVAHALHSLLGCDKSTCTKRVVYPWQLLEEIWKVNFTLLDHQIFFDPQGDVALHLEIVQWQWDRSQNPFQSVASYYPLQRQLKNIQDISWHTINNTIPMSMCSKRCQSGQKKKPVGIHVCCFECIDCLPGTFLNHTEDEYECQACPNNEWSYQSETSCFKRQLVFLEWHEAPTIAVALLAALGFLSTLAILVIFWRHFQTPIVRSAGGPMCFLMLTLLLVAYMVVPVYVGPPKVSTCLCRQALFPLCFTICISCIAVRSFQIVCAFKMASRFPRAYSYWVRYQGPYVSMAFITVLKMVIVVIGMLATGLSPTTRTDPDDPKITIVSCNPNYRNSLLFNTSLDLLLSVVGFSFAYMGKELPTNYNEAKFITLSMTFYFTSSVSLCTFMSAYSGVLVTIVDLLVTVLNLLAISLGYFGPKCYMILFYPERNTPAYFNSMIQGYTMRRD
T1 sequence (Q7RTX0 21-852): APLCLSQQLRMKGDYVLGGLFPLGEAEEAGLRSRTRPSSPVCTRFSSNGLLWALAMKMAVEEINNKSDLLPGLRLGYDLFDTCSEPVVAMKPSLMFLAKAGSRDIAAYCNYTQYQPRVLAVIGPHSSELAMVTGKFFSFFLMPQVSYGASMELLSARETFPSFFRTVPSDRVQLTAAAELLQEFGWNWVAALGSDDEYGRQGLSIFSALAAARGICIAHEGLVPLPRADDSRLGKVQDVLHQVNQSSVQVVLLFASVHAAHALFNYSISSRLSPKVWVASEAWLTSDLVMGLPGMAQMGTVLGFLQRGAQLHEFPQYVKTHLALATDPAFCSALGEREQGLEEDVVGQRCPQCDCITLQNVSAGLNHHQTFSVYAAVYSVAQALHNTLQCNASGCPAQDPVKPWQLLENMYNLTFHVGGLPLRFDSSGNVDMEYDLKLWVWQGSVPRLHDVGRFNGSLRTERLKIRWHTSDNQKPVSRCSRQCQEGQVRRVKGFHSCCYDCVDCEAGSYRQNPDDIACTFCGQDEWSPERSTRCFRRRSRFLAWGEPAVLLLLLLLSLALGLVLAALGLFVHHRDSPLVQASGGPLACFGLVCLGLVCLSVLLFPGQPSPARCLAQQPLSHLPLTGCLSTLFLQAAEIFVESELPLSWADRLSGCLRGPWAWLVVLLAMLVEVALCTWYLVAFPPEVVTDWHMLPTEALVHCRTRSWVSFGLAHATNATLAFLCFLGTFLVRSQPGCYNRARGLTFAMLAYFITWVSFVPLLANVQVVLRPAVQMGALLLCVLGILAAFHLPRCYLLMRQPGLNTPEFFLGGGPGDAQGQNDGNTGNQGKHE
Assay: Calcium mobilisation assay, TAS1R2 variant C9S with TAS1R3-WT
Type: cell-based
Conditions: for Max ΔF/F0: maximal signal amplitude
From the text: The coding sequences for TAS1R2 and TAS1R3 were commercially synthesised, and the human codon was optimised for expression in human cells. The coding sequences of human TAS1R2 and TAS1R3 were subcloned and inserted into the mammalian expression vectors pcDNA6/myc-HisA and pcDNA4/myc-HisA (Invitrogen; Thermo Fisher Scientific; Illkirch, France) between the EcoRI and NotI restriction sites, generating the plasmids pcDNA6-TAS1R2 and pcDNA4-TAS1R3, respectively. To increase protein expression in mammalian cells, an upstream start codon was used, which was a sequence called MAX, corresponding to the QBI SP163 element also described in pcDNA4-HisMax (Invitrogen; Thermo Fisher Scientific; Illkirch, France). To measure the expression level of the receptor by immunohistochemistry, we used the FLAG sequence ([…]) in the C-terminal position, which encodes the FLAG tag epitope. SNP variants of TAS1R2 and TAS1R3 were constructed based on […], respectively, using site-directed mutagenesis (Genewiz; Leipzig, Germany).
The HEK293T cells were kindly provided by Jay P. Slack (Givaudan Flavors Corporation; Cincinnati, OH, USA). HEK293T cells stably transfected with Gα16gust44 [43, 67] were seeded in poly-D-lysine-coated clear-bottom black 96-well plates (0.35 × 10^5 cells/well) in high-glucose DMEM supplemented with 2 mM GlutaMAX, 10% dialysed foetal bovine serum with penicillin/streptomycin and G418 (400 μg/mL) at 37 °C and 6.3% CO2 in a humidified atmosphere as previously reported. […] As a negative control, HEK293T cells were mock-transfected with the empty expression vector. After a further 24 h of incubation, the HEK293T cells were washed with C1 buffer (130 mM NaCl, 5 mM KCl, 10 mM HEPES pH 7.4 and 2 mM CaCl2). The 96-well plates containing the cells were then stimulated with sweet-tasting compounds. […] Different concentration ranges were tested depending on the sweet compound injected. The Ca^2+ changes were expressed as fractional changes in fluorescent light intensity: ΔF/F = (F − F0)/F0, where F was the fluorescent light intensity at each point, and F0 was the value of emitted fluorescent light prior to stimulus application. To calculate dose–response relationships, the changes in fluorescence upon stimulus application were averaged, mock-subtracted and baseline-corrected. The dose–response data obtained were adjusted using a 4-parameter logistic equation. The half-maximal effective concentrations (EC50 values) and maximal signal amplitudes were calculated using SigmaPlot software (version 15.0) (Systat Software; San Jose, CA, USA).
For in vitro calcium mobilisation assay performed on hTAS1R2-SNPs, hTAS1R3-SNPs and mTAS1R3-I60T, 6 to 7 concentrations were tested for each sweet compound, plus buffer alone. All concentration–receptor combinations were measured in duplicate, and each experiment was repeated at least 4 times (8 wells/concentration). Results were expressed for each concentration as ΔF/F mean ± SEM and represented as dose–response curves.

## CC1=CC(=O)NS(=O)(=O)O1 [Acesulfame K, acesulfame K]
  EC50: 466 ± 54 µM
  R1 = Variant EC50/WT EC50: 0.7
  Max ΔF/F0: 0.32 ± 0.01

## O=S(=O)(O)NC1CCCCC1 [Cyclamate, cyclamate]
  EC50: 1810 ± 55 µM

## C[C@H](CC[C@@H](O[C@@H]1O[C@H](CO[C@@H]2O[C@H](CO)[C@@H](O)[C@H](O)[C@H]2O)[C@@H](O)[C@H](O)[C@H]1O[C@@H]1O[C@H](CO)[C@@H](O)[C@H](O)[C@H]1O)C(C)(C)O)[C@H]1CC[C@@]2(C)[C@@H]3CC=C4[C@@H](CC[C@H](O[C@@H]5O[C@H](CO[C@@H]6O[C@H](CO)[C@@H](O)[C@H](O)[C@H]6O)[C@@H](O)[C@H](O)[C@H]5O)C4(C)C)[C@]3(C)[C@H](O)C[C@]12C [Mogroside V, mogroside V]
  EC50: 18.6 ± 1.6 µM
  R1 = Variant EC50/WT EC50: 1.1
  Max ΔF/F0: 1.32 ± 0.04

## COc1ccc(CCC(=O)c2c(O)cc(O[C@@H]3O[C@H](CO)[C@@H](O)[C@H](O)[C@H]3O[C@@H]3O[C@@H](C)[C@H](O)[C@@H](O)[C@H]3O)cc2O)cc1O [NHDC, neohesperidin dihydrochalcone]
  EC50: 99 ± 5.2 µM
  R1 = Variant EC50/WT EC50: 1.3
  Max ΔF/F0: 0.83 ± 0.02

## COC(=O)[C@H](Cc1ccccc1)NC(=O)[C@H](CC(=O)O)NCCC(C)(C)C [Neotame]
  EC50: 0.85 ± 0.16 µM
  R1 = Variant EC50/WT EC50: 1.0
  Max ΔF/F0: 0.66 ± 0.04

## C=C(C)[C@@H]1CC=C(/C=N/O)CC1 [Perillartine, perillartine]
  EC50: 17.8 ± 1.2 µM
  R1 = Variant EC50/WT EC50: 1.0
  Max ΔF/F0: 1.29 ± 0.03

## C=C1C[C@@]23CC[C@H]4[C@@](C)(CCC[C@@]4(C)C(=O)O[C@@H]4O[C@H](CO)[C@@H](O)[C@H](O[C@@H]5O[C@H](CO)[C@@H](O)[C@H](O)[C@H]5O)[C@H]4O[C@@H]4O[C@H](CO)[C@@H](O)[C@H](O)[C@H]4O)[C@@H]2CC[C@]1(O[C@@H]1O[C@H](CO)[C@@H](O)[C@H](O[C@@H]2O[C@H](CO)[C@@H](O)[C@H](O)[C@H]2O)[C@H]1O[C@@H]1O[C@H](CO)[C@@H](O)[C@H](O)[C@H]1O)C3 [Rebaudioside M, rebaudioside M]
  EC50: 23.7 ± 1.6 µM
  R1 = Variant EC50/WT EC50: 1.4
  Max ΔF/F0: 1.18 ± 0.03

## OC[C@H]1O[C@H](O[C@]2(CCl)O[C@H](CCl)[C@@H](O)[C@@H]2O)[C@H](O)[C@@H](O)[C@H]1Cl [Sucralose]
  EC50: 88 ± 15 µM
  R1 = Variant EC50/WT EC50: 1.0
  Max ΔF/F0: 0.72 ± 0.05

## brazzein (QDKCKKVYENYPVSKCQLANQCNYDCKLDKHARSGECFYDEKRNLQCICDYCEY; ends and bridges not checked; cysteine pairing not given here; UniProt P56552 1-54, looked up) [sweet-tasting protein obtained by recombinant production using the yeast Pichia pastoris]
  R1 = Variant EC50/WT EC50: 1.2
  Max ΔF/F0: 1.14 ± 0.03

## thaumatin
  R1 = Variant EC50/WT EC50: 0.9
  Max ΔF/F0: 0.61 ± 0.01

B1: thaumatin (protein)
chain: ATFEIVNRCSYTVWAAASKGDAALDAGGRQLNSGESWTINVEPGTKGGKIWARTDCYFDDSGSGICKTGDCGGLLRCKRFGRPPTTLAEFSLNQYGKDYIDISNIKGFNVPMDFSPTTRGCRGVRCAADIVGQCPAKLKAPGGGCNDACTVFQTSEYCCTTGKCGPTEYSRFFKRLCPDAFSYVLDKPTTVTCPGSSNYRVTFCPTA
modifications: Eight disulfides
notes: sweet-tasting plant protein, E957
  EC50: 6.6 ± 0.1 µM
